The values below come from US9487462B2, “Inhibitors of matrix metalloproteinases” (PharmaHungary 2000 Kft., priority 2010, dated 2016).

Data set [1] is described as follows: Cytotoxicity, alamarBlue viability, MRC-5. The format is cell-based. As to conditions: human, MRC-5 fibroblast cells, 48 hours incubation, read-out: MRC-5 LC50. As for the experimental part: (§1) Beside the inhibitory effect on MMPs we tested the cytotoxicity of the selected compounds. These measurements were done in parallel on two cell lines. One of them was the healthy human fibroblast cell line MRC-5 while the other was the human colon tumor cell line HCT116. The viability of the cells was monitored using alamarBlue. This dye is reduced by the cells resulting in an increased fluorescent signal which is proportional to the number of living cells. Cells were incubated with the dilutions of the tested compounds for 48 hours then alamarBlue was added to them for 4 hours. After that the fluorescence changes were detected using excitation at 540 nm and emission wavelength of 590 nm by a Wallac 1420 Microplate Reader. IC50 values were determined for the compounds using six concentrations and duplicate points for each concentration.
On the technique in general: Resazurin is reduced to fluorescent resorufin, in cell work by metabolically active cells.

Data set [2] deals with MMP1 (Homo sapiens (Human), UniProt P03956). As to the kind of experiment: MMP activity assay (fluorogenic substrate), MMP1. The format is biochemical. As to conditions: Table 2; read-out: MM1 IC50.
Data set [3] addresses MMP9 (Homo sapiens, UniProt P14780). As to the kind of experiment: MMP activity assay (fluorogenic substrate), MMP9 catalytic domain. The format is biochemical. The settings on record: Table 2. The procedure: (§2) MMP activity assays were conducted as follows: MMP2, MMP9, MMP13 catalytic domain was expressed in E. coli in form of inclusion bodies followed by refolding and purification.
(§3) The Protocol of the Activity Assay:
(§4) Stock solution of substrate (Mca-Lys-Pro-Leu-Gly-Leu-Dpa-Ala-Arg-NH2) was prepared in DMSO at a concentration of 6 mM. Assays were performed in an assay buffer (50 mM Tris pH 7.5, 300 mM NaCl, 10 μM ZnSO4, 5 mM CaCl2, 0.005% Brij-35). The final DMSO concentration in all assays was 1.0%. […] The assays were carried out at 37° C. The fluorescence changes, resulting from the substrate cleavage, were detected using excitation at 340 nm and emission wavelength of 405 nm using a Wallac 1420 Microplate Reader. The reaction mixtures were preincubated with the inhibitors for 30 minutes. The reactions were started by the addition of MMP substrate, and the fluorescence intensity changes were measured after 60 minutes. The obtained fluorescence values were normalized and % inhibition values calculated. Dose response curves were determined from 6 concentration points using three fold dilution steps, each concentration point was determined in duplicate. IC50 values were calculated from the dose response curves.

Data set [4] concerns the target MMP13 (Homo sapiens (Human), UniProt P45452). The data set is described as follows: MMP activity assay (fluorogenic substrate), MMP13 catalytic domain. In kind it is biochemical. As to conditions: Table 2; read-out: MMP13 IC50. The procedure: as §2, §3
as §4, with “The fluorescence changes, resulting from the substrate cleavage, were detected using excitation at 340 nm and emission wavelength of 405 nm using a Wallac 1420 Microplate Reader.” left out

Data set [5] can be described thus: Cytotoxicity, alamarBlue viability, HCT116. The format is cell-based. The settings on record: human, HCT116 colon tumor cells, 48 hours incubation, read-out: HCT116 LC50. As for the experimental part: as §1
Data set [6] addresses MMP2 (Homo sapiens, UniProt P08253). As to the kind of experiment: MMP activity assay (fluorogenic substrate), MMP2 catalytic domain. The settings on record: Table 2; read-out: MMP2 IC50. In kind it is biochemical. The procedure: as §2, §3, §4
Data set [7] relates to neonatal rat cardiac myocytes. As to the kind of experiment: Cytoprotective effect in cardiac myocytes subjected to hypoxia and reoxygenation. In kind it is cell-based. The procedure: Neonatal rat hearts were digested and isolated cardiomyocytes were plated onto 24-well plastic plates at […]. The cells were maintained at 37° C. in a humidified atmosphere of 5% CO2 and 95% air in a CO2 incubator until confluence was reached. Cultures at day 3 were used for treatments. Cells were kept under normoxic or simulated ischemic conditions, i.e. the growth medium was changed to a normoxic or hypoxic solution and the cells were incubated under 95% air and 5% CO2 or 95% N2 and 5% CO2 at 37° C. for 4 h, respectively as described in detail (Gorbe A, Giricz Z, Szunyog A, Csont T, Burley D S, Baxter G F, Ferdinandy P. Role of cGMP-PKG signaling in the protection of neonatal rat cardiac myocytes subjected to simulated ischemia/reoxygenation. Basic Res Cardiol. 105:643-650, 2010). The positive control ilomastate (0.5 microM) and MMP-inhibitors at different effective concentrations (EC 5, EC 10, EC 20, and EC50 as determined in previous test examples) were applied during normoxia or simulated ischemia and also during reoxygenation. The vehicle was DMSO. Cell viability was determined after Calcein A M fluorescent staining as described (Karliner J S, Honbo N, Summers K, Gray M O, Goetzl E J. The lysophospholipids sphingosine-1-phosphate and lysophosphatidic acid enhance survival during hypoxia in neonatal rat cardiac myocytes. J Mol Cell Cardiol, 33:1713-7, 2001). Total cell count was determined after digitonin treatment to permeabilize the cells by using propidium iodine fluorescent staining (Roy S S, Hajnoczky G. Calcium, mitochondria and apoptosis studied by fluorescence measurements. Methods. 46:213-223, 2008).

pIC50: −log10 of the molar value. Structures can show the parent of a compound that is named as a salt.

MMP1, sequence (P03956 100-469, species assumed): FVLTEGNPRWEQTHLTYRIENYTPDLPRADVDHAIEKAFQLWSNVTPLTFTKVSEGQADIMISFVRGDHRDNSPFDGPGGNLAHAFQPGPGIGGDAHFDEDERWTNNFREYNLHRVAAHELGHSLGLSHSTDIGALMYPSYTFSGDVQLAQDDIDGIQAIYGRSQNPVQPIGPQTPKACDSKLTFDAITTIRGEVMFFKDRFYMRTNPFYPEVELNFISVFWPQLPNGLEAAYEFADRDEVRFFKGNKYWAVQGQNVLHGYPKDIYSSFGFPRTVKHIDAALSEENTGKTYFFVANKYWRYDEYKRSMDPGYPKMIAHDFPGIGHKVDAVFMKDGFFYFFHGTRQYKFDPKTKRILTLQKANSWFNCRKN

Regarding `CCOC(=O)c1csc(CN(Cc2ccc(F)cc2)Cc2ccc(OCc3cccnc3)cc2)n1` [Compound 2, Ethyl 2-({[(4-fluorophenyl)methyl]({[4-(pyridin-3-ylmethoxy)phenyl]methyl})amino}methyl)-1,3-thiazole-4-carboxylate], the values for the CC50 at 48 h in data set [1] and in data set [5] were 0.8 µM and 0.5 µM, respectively. Moreover, the pIC50 (as a rule, −log10 of the IC50, conventionally taken in molar units) in data set [2] is 3.73; in data set [3], 3.79; in data set [4], 5.43; in data set [6], 3.98.
Consider `O=C(O)c1csc(CN(Cc2ccc(OCc3ccccc3)cc2)CC(c2ccccc2)c2ccccc2)n1` [Compound 6, 2-[({[4-(Benzyloxy)phenyl]methyl}(2,2-diphenylethyl)amino)methyl]-1,3-thiazole-4-carboxylic acid], for which the CC50 at 48 h in data set [1] came out at 18 µM; in data set [5], 3.5 µM.
For the molecule `O=C(O)c1csc(CN(Cc2ccccc2)Cc2ccccc2)n1` [Compound 7, 2-[(Dibenzylamino)methyl]-1,3-thiazole-4-carboxylic acid], the CC50 at 48 h in data set [1] came to 117 µM; in data set [5], 73 µM. For the same molecule, the pIC50 in data set [2] is 4.96; in data set [3], 4.89; in data set [4] it was 5.49; in data set [6], 5.00.
For `O=C(O)c1csc(CN(Cc2ccc(OCc3cccnc3)cc2)Cc2cccc(F)c2)n1` [Compound 8, 2-[({[4-(Pyridin-3-ylmethoxy)phenyl]methyl}[(3-fluorophenyl)methyl]amino)methyl]-1,3-thiazole-4-carboxylic acid], the “Cytoprotective effect, % cell survival as compared to vehicle DMSO” value (“Cytoprotective effect, % cell survival” below) in data set [7] (normoxia, EC5 concentration 0.7 microM) is recorded as 99 ± 4%; in data set [7] (normoxia, EC10 concentration 2.0 microM), 103 ± 4%; in data set [7] (normoxia, EC20 concentration 6.0 microM) it was 119 ± 5 %; in data set [7] (normoxia, EC50 concentration 18.0 microM) it was 127 ± 4 %; in data set [7] (simulated ischemia, EC5 concentration 0.7 microM), 117 ± 12%; in data set [7] (simulated ischemia, EC10 concentration 2.0 microM), 120 ± 8%. In addition, the “Cytoprotective effect, % cell survival” value is listed as 144 ± 25% in data set [7] (simulated ischemia, EC20 concentration 6.0 microM) and 107 ± 8% in data set [7] (simulated ischemia, EC50 concentration 18.0 microM).
Consider `O=C(O)c1csc(CN(Cc2ccc(F)cc2)Cc2ccc(OCc3ccncc3)cc2)n1` [Compound 9, 2-({[(4-Fluorophenyl)methyl]({[4-(pyridin-4-ylmethoxy)phenyl]methyl})amino}methyl)-1,3-thiazole-4-carboxylic acid], for which the CC50 at 48 h in data set [1] was 12 µM; in data set [5] it was 4.7 µM. Besides, the pIC50 was 4.33 in data set [2], 5.06 in data set [3], 5.91 in data set [4] and 5.10 in data set [6].
`CCOC(=O)c1csc(CN(Cc2ccc(F)cc2)Cc2ccc(OCc3ccccc3)cc2)n1` [Compound 11, Ethyl 2-[({[4-(benzyloxy)phenyl]methyl}[(4-fluorophenyl)methyl]amino)methyl]-1,3-thiazole-4-carboxylate]: the CC50 at 48 h in data set [1] was determined as 12 µM; in data set [5] it was 5.8 µM.
With `O=C(O)c1csc(CN(Cc2ccncc2)Cc2ccc(OCc3ccccc3)cc2)n1` [Compound 13, 2[({[4-(Benzyloxy)phenyl]methyl}(pyridin-4-ylmethyl)amino)methyl]-1,3-thiazole-4-carboxylic acid], the CC50 at 48 h in data set [1] was found to be 11 µM; in data set [5] it was 20 µM. For the same molecule, the pIC50 is 3.94 in data set [2], less than 3.30 in data set [3], 5.82 in data set [4] and 4.27 in data set [6].
On to `CCOC(=O)c1csc(CN(Cc2ccc(OCc3cccnc3)cc2)Cc2cccnc2)n1` [Compound 17, Ethyl 2-[({[4-(pyridin-3-ylmethoxy)phenyl]methyl}(pyridin-3-ylmethyl)amino)methyl]-1,3-thiazole-4-carboxylate], for which the values for the CC50 at 48 h in data set [1] and in data set [5] were 15 µM and 47 µM, respectively. Besides, the pIC50 in data set [2] is 3.70; in data set [3], 3.64; in data set [4], 4.72; in data set [6], 3.71.
For `O=C(O)c1c[nH]c(CNCc2ccc(OCc3cccnc3)cc2)n1` [Compound 31 HCl, 2-[({[4-(Pyridin-3-ylmethoxy)phenyl]methyl}amino)methyl]-1H-imidazole-4-carboxylic acid], the “Cytoprotective effect, % cell survival” value is 108 ± 4% in data set [7] (normoxia, EC5 concentration 0.25 microM); 103 ± 3% in data set [7] (normoxia, EC10 concentration 1.0 microM); 106 ± 4% in data set [7] (normoxia, EC20 concentration 4.0 microM); 103 ± 3% in data set [7] (normoxia, EC50 concentration 16.0 microM); 116 ± 8 % in data set [7] (simulated ischemia, EC5 concentration 0.25 microM); 107 ± 3% in data set [7] (simulated ischemia, EC10 concentration 1.0 microM). Also, the “Cytoprotective effect, % cell survival” value in data set [7] (simulated ischemia, EC20 concentration 4.0 microM) is on record as 126 ± 2 %; in data set [7] (simulated ischemia, EC50 concentration 16.0 microM), 127 ± 3 %.
Turning to `FC(F)(F)c1cnc(CCc2ccccc2)[nH]1` [Compound 35, 2-Phenethyl-5-trifluoromethyl-1H-imidazole], the figures for the pIC50 in data set [3], in data set [4] and in data set [6] were less than 3.30, 3.30 and less than 3.30, respectively.
`O=C(O)c1cnc(CCc2ccccc2)[nH]1` [Compound 36, 2-Phenethyl-3H-imidazole-4-carboxylic acid]: the pIC50 in data set [3] was less than 3.30; in data set [4], 3.52; in data set [6] it was less than 3.30.
On to `COC(=O)c1cnc(CCc2ccccc2)[nH]1` [Compound 37, 2-Phenethyl-3H-imidazole-4-carboxylic acid methyl ester], for which the pIC50 in data set [3] is 3.84; in data set [4] it was less than 3.30; in data set [6], 4.18.
As to `O=C(c1cnc(CCc2ccccc2)[nH]1)N1CCCC1` [Compound 38, (2-Phenethyl-3H-imidazol-4-yl)-pyrrolidin-1-yl-methanone], the pIC50 in data set [3] is 4.10; in data set [4], 4.27; in data set [6], 4.21.
For `FC(F)(F)c1cnc(-c2ccccc2)[nH]1` [Compound 39, 2-Phenyl-5-trifluoromethyl-1H-imidazole] the same measures were less than 3.30, 3.47 and less than 3.30.
As to `O=C(O)c1cnc(-c2ccccc2)[nH]1` [Compound 40, 2-Phenyl-3H-imidazole-4-carboxylic acid], the pIC50 in data set [3] is 3.60; in data set [4], 3.78; in data set [6], 3.86.
